The nature of data set [1]: Skin cell toxicity assay with HaCaT (alamarBlue). The format is cell-based, human. To be noted: human, HaCaT cells (keratinocytes). The method in brief: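 HaCaT cells seeded at 2x10^4 per well 24 hours before 1-hour exposure to a 2–100 µM triplicate dilution series in DMEM high glucose with 10% FBS at 37 °C, 5% CO2. Viability assessed with alamarBlue; ED50 defined as dose killing 50% of cells, derived from dose-response data.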
For orientation: Alamar Blue is a resazurin reagent that responds to reducing activity.

Data set [2] is described as follows: Cytotoxicity assay with HepG2 (alamarBlue). Format: cell-based, human. To be noted: human, HepG2 cells. As to the method:
The activity of our peptoid library was assessed against both bacterial and mammalian cells to gain a broader understanding of the factors that lead to effective and selective antimicrobial peptoids. We screened for broad-spectrum antibacterial activity against Gram-negative (Escherichia coli and Pseudomonas aeruginosa) and Gram-positive (Staphylococcus aureus and S. epidermidis) bacteria. The toxicity of the library was also assessed against two mammalian cell lines; HaCaT spontaneously transformed aneuploid keratinocytes were employed to model toxicity against human skin cells and HepG2, a cell line derived from a human liver carcinoma, were used as a study on polarised human hepatocytes. Detailed methods for these assays can be found in the ESI. ^‡ […]
Please note – ED50, the median effective dose, was defined as the dose that kills 50% of cells.
Cytotoxicity analyses were performed in 96-well plates (Costar, Fisher Scientific) using alamarBlue® (Invitrogen) for cell viability detection using a modified protocol as described previously. HepG2 or HaCaT cells were subcultured at 37 °C, 5% CO2 in DMEM high glucose supplemented with heat-inactivated foetal bovine sera (FBS, 10%; Biosera Ltd) and penicillin/streptomycin (P/S, 1%). Cells were counted using a Neubauer Improved Haemocytometer. HepG2 cells were seeded 1 day prior to treatment in 96 well plates at a concentration of 2 × 10^5 cells per mL in 100 μL of medium (2 × 10^4 cells per well). Then cells were pre-incubated with the compounds in triplicate in a dilution series in triplicate from 2–100 μM (5 mM stock solutions in DMSO diluted from 100 μM to 3 μM; untreated cells with DMSO as a negative control) in 50 μl of the media for 1 hour. Afterwards, 40 μL were removed from each well before the addition of 90 μL of the media, followed by incubation for 24 hours at 37 °C, 5% CO2. Then, 10 μL of alamarBlue® (Invitrogen) was added to each well before a 2 hour incubation prior to assessing cell viability using a fluorescent plate reader (Biotek; Ex 560 nm/Em 600 nm). All data were measured in triplicate on a minimum of two occasions to ensure a robust data set was collected. The ED50 values were calculated from the dose response results achieved from the serial dilutions.
Cytotoxicity assay with HepG2
Cytotoxicity analyses were performed in 96-well plates (Costar, Fisher Scientific) using alamarBlue® (Invitrogen) for cell viability detection using a modified protocol as previously described. The HepG2 cells were grown at 37 °C, 5% CO2 in DMEM high glucose supplemented with heat-inactivated foetal bovine sera (FBS, 10%; Biosera Ltd) and penicillin/streptomycin (P/S, 1%). Cells were counted using a Neubauer Improved Haemocytometer. HepG2 cells were seeded 1 day prior to treatment in 96 well plates at a concentration of 2x10^5 cells/mL in 100 µL of medium (2x10^4 cells/well). Then cells were pre-incubated with the compounds in triplicate (5 mM stock solutions in DMSO diluted from 100 µM to 3 µM; untreated cells with DMSO as a negative control) in 50 µl of the media for 1 hour.
Afterwards, 40 µL were removed from each well before the addition of 90 µL of the media, followed by incubation for 24 hours at 37 °C, 5% CO2. Then, 10 µL of alamarBlue® (Invitrogen) was added to each well before a 2 hour incubation prior to assessing cell viability using a fluorescent plate reader (Biotek; Ex 560 nm / Em 600 nm). All data was measured in triplicate on a minimum of two occasions to ensure a robust data set was collected. The ED50 values were calculated from the dose response results achieved from the serial dilutions. […]
5% CO2 in DMEM high glucose supplemented with heat-inactivated foetal bovine sera (FBS, 10%; Biosera Ltd) and penicillin/streptomycin (P/S, 1%). Cells were counted using a Neubauer […]
Empty wells were filled with 100 µL PBS. After 24 hours, cells were incubated with the compounds in a dilution series in triplicate from 2 – 100 µM (5 mM stock solutions in DMSO […]

Square brackets hold non-standard residues; d marks the D form. Peptide text beside a SMILES is read from it. Gly(Nα-4-Cl-benzyl) = O=C(O)CNCc1ccc(Cl)cc1; Gly(N-(CH2)6NH2) = NCCCCCCNCC(=O)O; Gly(N-2-aminoethyl) = NCCNCC(=O)O; Nspe = C[C@H](NCC(=O)O)c1ccccc1; NhArg = N=C(N)NCCCCNCC(=O)O; NPentylGly = CCCCCNCC(=O)O; Nphe = O=C(O)CNCc1ccccc1; Nlys = NCCCCNCC(=O)O

In the case of `NCCNCC(=O)N(CC(=O)N(CC(=O)N(CCN)CC(=O)N(CC(=O)N(CC(=O)N(CCN)CC(=O)N(CC(=O)N(CC(=O)N(CCN)CC(=O)N(CC(=O)N(CC(N)=O)Cc1ccccc1)Cc1ccccc1)Cc1ccccc1)Cc1ccccc1)Cc1ccccc1)Cc1ccccc1)Cc1ccccc1)Cc1ccccc1` [Peptoid 7, (NaeNpheNphe)4] (H-[Gly(N-2-aminoethyl)][Nphe][Nphe][Gly(N-2-aminoethyl)][Nphe][Nphe][Gly(N-2-aminoethyl)][Nphe][Nphe][Gly(N-2-aminoethyl)][Nphe][Nphe]-NH2), the CC50 at 24 h in data set [1] (ED50 HaCaT) and in data set [2] (ED50 HepG2) was 100 µM each time.
Turning to `C[C@@H](c1ccccc1)N(CC(N)=O)C(=O)CN(C(=O)CN(CCN)C(=O)CN(C(=O)CN(C(=O)CN(CCN)C(=O)CN(C(=O)CN(C(=O)CNCCN)[C@@H](C)c1ccccc1)[C@@H](C)c1ccccc1)[C@@H](C)c1ccccc1)[C@@H](C)c1ccccc1)[C@@H](C)c1ccccc1` [Peptoid 17, (NaeNspeNspe)3], the CC50 at 24 h in data set [1] (dose that kills 50% of cells, 2–100 μM, 1 h with compound then 24 h, alamarBlue, read-out: ED50 HaCaT) was 100 µM; in data set [2] (dose that kills 50% of cells, 2–100 μM, 1 h with compound then 24 h, alamarBlue, read-out: ED50 HepG2) it was 100 µM.
As for `NCCCCNCC(=O)N(CC(=O)N(CC(=O)N(CCCCN)CC(=O)N(CC(=O)N(CC(=O)N(CCCCN)CC(=O)N(CC(=O)N(CC(=O)N(CCCCN)CC(=O)N(CC(=O)N(CC(N)=O)Cc1ccccc1)Cc1ccccc1)Cc1ccccc1)Cc1ccccc1)Cc1ccccc1)Cc1ccccc1)Cc1ccccc1)Cc1ccccc1` [Peptoid 4, (NLysNpheNphe)4] (H-[Nlys][Nphe][Nphe][Nlys][Nphe][Nphe][Nlys][Nphe][Nphe][Nlys][Nphe][Nphe]-NH2), the values for the CC50 at 24 h in data set [1] (ED50 HaCaT) and in data set [2] (ED50 HepG2) were 36 µM and 100 µM, respectively.
Regarding `NCCCCCCNCC(=O)N(CC(=O)N(CC(=O)N(CCCCCCN)CC(=O)N(CC(=O)N(CC(N)=O)Cc1ccccc1)Cc1ccccc1)Cc1ccccc1)Cc1ccccc1` [Peptoid 3, (NahNpheNphe)2] (H-[Gly(N-(CH2)6NH2)][Nphe][Nphe][Gly(N-(CH2)6NH2)][Nphe][Nphe]-NH2), the CC50 at 24 h in data set [1] (ED50 HaCaT) and in data set [2] (ED50 HepG2) was 100 µM each time.
For the compound `C[C@@H](c1ccccc1)N(CC(N)=O)C(=O)CN(C(=O)CN(CCCCN)C(=O)CN(Cc1ccc(F)cc1)C(=O)CN(Cc1ccc(F)cc1)C(=O)CN(CCCCN)C(=O)CN(C(=O)CN(C(=O)CN(CCCCN)C(=O)CN(Cc1ccc(F)cc1)C(=O)CN(Cc1ccc(F)cc1)C(=O)CNCCCCN)[C@@H](C)c1ccccc1)[C@@H](C)c1ccccc1)[C@@H](C)c1ccccc1` [Peptoid 28, [(NLysNpfbNpfb)(NLysNspeNspe)]2], the CC50 at 24 h in data set [1] (ED50 HaCaT) was found to be 100 µM; in data set [2] (ED50 HepG2) it was 55 µM.
For `C[C@@H](c1ccccc1)N(CC(N)=O)C(=O)CN(Cc1ccc(F)cc1)C(=O)CN(CCCCN)C(=O)CN(C(=O)CN(Cc1ccc(F)cc1)C(=O)CN(CCCCN)C(=O)CN(C(=O)CN(Cc1ccc(F)cc1)C(=O)CN(CCCCN)C(=O)CN(C(=O)CN(Cc1ccc(F)cc1)C(=O)CNCCCCN)[C@@H](C)c1ccccc1)[C@@H](C)c1ccccc1)[C@@H](C)c1ccccc1` [Peptoid 26, (NLysNpfbNspe)4] the same measures were 20 µM and 26 µM.
For `NCCNCC(=O)N(CC(=O)N(CC(=O)N(CCN)CC(=O)N(CC(=O)N(CC(=O)N(CCN)CC(=O)N(CC(=O)N(CC(N)=O)Cc1ccccc1)Cc1ccccc1)Cc1ccccc1)Cc1ccccc1)Cc1ccccc1)Cc1ccccc1` [Peptoid 8, (NaeNpheNphe)3] (H-[Gly(N-2-aminoethyl)][Nphe][Nphe][Gly(N-2-aminoethyl)][Nphe][Nphe][Gly(N-2-aminoethyl)][Nphe][Nphe]-NH2) the same measures were 100 µM and 100 µM.
In the same order, the values of `CCCCCNCC(=O)N(CC(=O)N(CC(=O)N(CCCCN)CC(=O)N(CC(=O)N(CC(=O)N(CCCCN)CC(=O)N(CC(=O)N(CC(=O)N(CCCCN)CC(=O)N(CC(=O)N(CC(N)=O)[C@@H](C)c1ccccc1)[C@@H](C)c1ccccc1)[C@@H](C)c1ccccc1)[C@@H](C)c1ccccc1)[C@@H](C)c1ccccc1)[C@@H](C)c1ccccc1)[C@@H](C)c1ccccc1)[C@@H](C)c1ccccc1` [Peptoid 30, (NamyNspeNspe)[(NLysNspeNspe)]3] are 12 µM and 15 µM.
In the case of `C[C@@H](c1ccccc1)N(CC(N)=O)C(=O)CN(C(=O)CN(CCN)C(=O)CN(C(=O)CN(C(=O)CN(CCN)C(=O)CN(C(=O)CN(C(=O)CN(CCN)C(=O)CN(C(=O)CN(C(=O)CNCCN)[C@@H](C)c1ccccc1)[C@@H](C)c1ccccc1)[C@@H](C)c1ccccc1)[C@@H](C)c1ccccc1)[C@@H](C)c1ccccc1)[C@@H](C)c1ccccc1)[C@@H](C)c1ccccc1` [Peptoid 16, (NaeNspeNspe)4] (H-[Gly(N-2-aminoethyl)][Nspe][Nspe][Gly(N-2-aminoethyl)][Nspe][Nspe][Gly(N-2-aminoethyl)][Nspe][Nspe][Gly(N-2-aminoethyl)][Nspe][Nspe]-NH2), the CC50 at 24 h in data set [1] (ED50 HaCaT) came to 26 µM; in data set [2] (ED50 HepG2), 41 µM.
For the compound `NCCCCNCC(=O)N(CC(=O)N(CC(=O)N(CCCCN)CC(=O)N(CC(=O)N(CC(=O)N(CCCCN)CC(=O)N(CC(=O)N(CC(=O)N(CCCCN)CC(=O)N(CC(=O)N(CC(N)=O)Cc1ccc(Cl)cc1)Cc1ccc(Cl)cc1)Cc1ccc(Cl)cc1)Cc1ccc(Cl)cc1)Cc1ccc(Cl)cc1)Cc1ccc(Cl)cc1)Cc1ccc(Cl)cc1)Cc1ccc(Cl)cc1` [Peptoid 20, (NLysNpcbNpcb)4] (H-[Nlys][Gly(Nα-4-Cl-benzyl)][Gly(Nα-4-Cl-benzyl)][Nlys][Gly(Nα-4-Cl-benzyl)][Gly(Nα-4-Cl-benzyl)][Nlys][Gly(Nα-4-Cl-benzyl)][Gly(Nα-4-Cl-benzyl)][Nlys][Gly(Nα-4-Cl-benzyl)][Gly(Nα-4-Cl-benzyl)]-NH2), the CC50 at 24 h in data set [1] (ED50 HaCaT) is 18 µM; in data set [2] (ED50 HepG2), 22 µM.
In the same order, the values of `NCCCCCCNCC(=O)N(CC(=O)N(CC(=O)N(CCCCCCN)CC(=O)N(CC(=O)N(CC(=O)N(CCCCCCN)CC(=O)N(CC(=O)N(CC(=O)N(CCCCCCN)CC(=O)N(CC(=O)N(CC(N)=O)Cc1ccccc1)Cc1ccccc1)Cc1ccccc1)Cc1ccccc1)Cc1ccccc1)Cc1ccccc1)Cc1ccccc1)Cc1ccccc1` [Peptoid 1, (NahNpheNphe)4] (H-[Gly(N-(CH2)6NH2)][Nphe][Nphe][Gly(N-(CH2)6NH2)][Nphe][Nphe][Gly(N-(CH2)6NH2)][Nphe][Nphe][Gly(N-(CH2)6NH2)][Nphe][Nphe]-NH2) are 100 µM and 100 µM.
In the same order, the values of `CCCCCNCC(=O)N(CC(=O)N(CC(=O)N(CCCCNC(=N)N)CC(=O)N(CC(=O)N(CC(=O)N(CCCCC)CC(=O)N(CC(=O)N(CC(=O)N(CCCCNC(=N)N)CC(=O)N(CC(=O)N(CC(N)=O)[C@@H](C)c1ccccc1)[C@@H](C)c1ccccc1)[C@@H](C)c1ccccc1)[C@@H](C)c1ccccc1)[C@@H](C)c1ccccc1)[C@@H](C)c1ccccc1)[C@@H](C)c1ccccc1)[C@@H](C)c1ccccc1` [Peptoid 40, [(NamyNspeNspe)(NhArgNspeNspe)]2] (H-[NPentylGly][Nspe][Nspe][NhArg][Nspe][Nspe][NPentylGly][Nspe][Nspe][NhArg][Nspe][Nspe]-NH2) are 31 µM and 24 µM.

The record behind these values is article PMC6072100, “Exploring the links between peptoid antibacterial activity and toxicity” (MedChemComm, 2017).
